# Assay results taken from patent US8198293B2, “Oxymatrine compositions and related methods for treating and preventing chronic infectious diseases” (priority 2008, dated 2012).
# Tests used:
# enterovirus = assay: Case reports: diarrhea with viral/enterovirus protein in colon biopsy (Examples 11, 12); type: in vivo, human
# Source text: A person developed continuing watery diarrhea, as many as twenty episodes a day, and mild fatigue for three months. Laboratory studies and stool work-up were completely negative. […] They failed Asacol therapy.
# A person developed severe watery diarrhea for two months. Stool evaluation was unremarkable. […] They continued to do well for six months on the medication. A decrease of medication to half the dose cause a relapse of the symptoms, which resolved after increasing the dosage.
# hepatitis B virus = details: HBV transgenic mice, cited from earlier work
# coxsackievirus B = details: in vitro, cell cultures; mechanism not defined; cited from earlier work
# [1] = tested on: cytokine gene expression (Th1/Th2); assay: Cytokine gene expression study before and during/after oxymatrine; type: in vivo, human
# Source text: FIG. 4 graphically illustrates a cytokine gene expression study before and after oxymatrine (RQ is the gene expression ratio).
# FIG. 5 graphically illustrates cytokine gene expression of interleukin-12P35+P40/interleukin-10 in tissue from CFS patients at the start of (pre-oxymatrine) and during oxymatrine therapy (n=17).
# A cytokine gene expression study on blood samples before (Sample 2) and after (Sample 3) taking oxymatrine for 15 months in one patient, is graphically illustrated in FIG. 4. […] FIG. 5 illustrates that neutralizing antibodies CBV 3 and CBV 4 were obtained serially over a three year period (performed by ARUP laboratory, Salt Lake City, Utah).
# chronic hepatitis B = details: oral, after one year of treatment; cited from earlier work
# enterovirus protein = assay: Immunoperoxidase staining of stomach biopsy for enterovirus protein (5D8/1); type: in vivo, human; details: one patient (case 5), before vs after taking oxymatrine for 6 months; correlated with symptomatic improvement
# Source text: FIG. 2 illustrates the infected human stomach (biopsy of case 5 stained with 5D8/1) before treatment with oxymatrine.
# FIG. 3 illustrates the stomach biopsy of case 5 stained with 5 D8/1 after taking oxymatrine for 6 months.
# FIG. 2 illustrates immunoperoxidase staining for enterovirus protein in a stomach biopsy before oxymatrine therapy for one patient. […] The decrease in viral protein correlated with significant symptomatic improvement.
# [2] = tested on: enterovirus infection (ME/CFS patients); assay: Oxymatrine open-label, controlled clinical study in ME/CFS patients with enterovirus infection; type: in vivo, human
# Experimental: An open-label, controlled study was conducted on patients who fulfilled the international criteria for myalgic encephalomyelitis (ME)/chronic fatigue syndrome (CFS) and had virological evidence of enterovirus infection.
# One hundred patients took oxymatrine at dose of 200-300 mg twice a day with or without food for a minimum of three months. Patients who could not complete the course due to side effects or intolerance were considered as failures (intent-to-treat analysis). Of the first group, 52% ( 52/100) responded to oxymatrine, as compared to 6% ( 7/114) of the control groups (p<0.000001, x^2 test). Of the next 104 patients, 52% responded to treatment. […] Fifty-three percent ( 57/107) of patients with elevated coxsackie virus B (CVB) and echovirus (Ech) antibody responded to therapy and 50% ( 49/97) of patients with non-typeable EV infections improved (NS, x^2 test). Fifty-two percent ( 47/91) of patients with positive EV protein in stomach biopsies responded, whereas 56% ( 5/9) of patients with negative biopsies responded (NS, x^2 test).
# Relapse of symptoms was common after discontinuing oxymatrine. Fifty-nine percent ( 19/32) of patients (4 male, 15 female) relapsed within two days to one month after discontinuation of oxymatrine. Eighty-seven percent ( 13/15) of patients who relapsed responded to restart of oxymatrine. Subsequent responders were continued on oxymatrine beyond six months.
# A small percentage ( 2/204) of patients had transient increase in potassium, which returned to normal without specific treatment. A small percentage of patients ( 2/204) had elevated blood pressure that prompted discontinuation of therapy. […] Transient, moderate increase in pre-existing symptoms were reported by more than 50% of the patients but most patients continued to take the herbs at the same or reduced dose. Twenty patients (10%) stopped oxymatrine within the first eight weeks due to intolerable side effects. […]
# [3] = compared to placebo-treated animals
# [4] = blood samples of one patient before and after 15 months of oxymatrine (FIG. 4)
# [5] = side effects in 176 patients having taken oxymatrine
compound,measurement,setting,value
O=C1CCC[C@@H]2[C@H]3CCC[N@+]4([O-])CCC[C@@H](CN12)[C@@H]34 [oxymatrine],diarrhea outcome,"enterovirus; Example 11 patient, oxymatrine 200 mg bid",resolved completely in a few days
same,diarrhea outcome,enterovirus; Example 12 patient,resolved within one week
same,level of gamma interferon,hepatitis B virus; [3],increased more than three-fold
same,level of interleukin-2,hepatitis B virus; [3],increased more than three-fold
same,level of interleukin-4,hepatitis B virus; [3],decreased more than three-fold
same,level of interleukin-10,hepatitis B virus; [3],decreased more than three-fold
same,"effect on hepatitis B viremia, mRNA and protein levels",hepatitis B virus,No effect
same,growth inhibition of coxsackievirus B,coxsackievirus B,growth inhibition
same,"Th1 cytokines gene expression (interleukin-2, interleukin-12, interleukin-15)",[1]; [4],significant increase
same,regulatory Th2 cytokine gene expression (interleukin-10),[1]; [4],significant decrease
same,increase of the interleukin-12P35+P40/interleukin-10 gene expression ratio,"[1]; seven responders of n=17 CFS patients, pre-oxymatrine vs during therapy (FIG. 5)",greater than 2 fold
same,interleukin-12P35+P40/interleukin-10 gene expression ratio,[1]; ten non-responders of n=17 CFS patients (FIG. 5),remained the same or decreased
same,overall cure rate,chronic hepatitis B,about 40%
same,enterovirus protein in stomach biopsy by staining with monoclonal antibody 5D8/1,enterovirus protein,significant reduction in viral protein
same,relapsed patients who responded to restart of oxymatrine,[2]; 13/15,Eighty-seven
same,patients relapsed after discontinuation of oxymatrine,"[2]; 19/32, within two days to one month after discontinuation",Fifty-nine
same,duration of the increase in symptoms,[2]; better tolerated when dose increased gradually over 2-3 weeks or longer,a few days to several weeks
same,"patients reporting transient, moderate increase in pre-existing symptoms","[2]; both, human, in vivo",more than 50%
same,changes of other chemistry parameters and complete blood counts (CBC),[2]; compared to baseline values,no significant changes
same,tolerability in most of the patients,[2]; except variable increase of pre-existing symptoms during the first 1-2 days of maximal doses,tolerated oxymatrine well
same,patients responded to oxymatrine,"[2]; first group (52/100), 200-300 mg twice a day, minimum three months, intent-to-treat, control 6% (7/114)",52%
same,serious complications during therapy,"[2]; human, in vivo",No serious complications
same,patients responded to treatment,[2]; next 104 patients,52%
same,patients with elevated blood pressure that prompted discontinuation of therapy,[2]; of 204 patients,2/204
same,patients with transient increase in potassium,"[2]; of 204 patients, returned to normal without specific treatment",2/204
same,patients responded to therapy,[2]; patients with elevated coxsackie virus B and echovirus antibody (57/107),Fifty-three
same,patients improved,[2]; patients with non-typeable EV infections (49/97),50%
same,patients responded,[2]; patients with positive EV protein in stomach biopsies (47/91),Fifty-two
same,"Diffuse rashes, % of total patients",[2]; [5],<1%
same,"Dry eyes and mouth, % of total patients",[2]; [5],1%
same,"Fevers, % of total patients",[2]; [5],2%
same,"Herpes simplex virus outbreak after discontinuation, % of total patients",[2]; [5],1%
same,"Increase in blood pressure, % of total patients",[2]; [5],1%
same,"Increase in edema, % of total patients",[2]; [5],1%
same,"Increased abdominal pain, % of total patients",[2]; [5],6%
same,"Increased bladder symptoms, % of total patients",[2]; [5],2%
same,"Increased diarrhea, % of total patients",[2]; [5],4%
same,"Increased dizziness, % of total patients",[2]; [5],2%
same,"Increased fatigue, % of total patients",[2]; [5],4%
same,"Increased headache, % of total patients",[2]; [5],8%
same,"Increased insomnia, % of total patients",[2]; [5],1%
same,"Increased myalgia, % of total patients",[2]; [5],30%
same,"Increased nausea, % of total patients",[2]; [5],6%
same,"Increased palpitation, chest pain, % of total patients",[2]; [5],3%
same,"Increased polyarthralgia, % of total patients",[2]; [5],1%
same,"Increased sinus congestion, % of total patients",[2]; [5],3%
same,"Inflammation of skin lesion, % of total patients",[2]; [5],1%
same,"New rashes, % of total patients",[2]; [5],<1%
same,"Seizure (petit mal), % of total patients",[2]; [5],<1%
same,"Weight gain, % of total patients",[2]; [5],1%
same,outcome in one patient with severe increase in febrile response and marked worsening of symptoms,[2]; toward the end of three months of medication,lasting remission
same,patients who stopped oxymatrine due to intolerable side effects,"[2]; within the first eight weeks, twenty patients",10%
